{
  "source": "patent US20220386613A1",
  "about": "“WEED CONTROL METHOD AND MIXED AGROCHEMICAL COMPOSITION FOR SOIL TREATMENT” (KUMIAI CHEMICAL INDUSTRY CO., LTD., priority 2019, published 2022)",
  "format_in_all_cases": "in vivo",
  "key": {"[1]": {"test_system": "barnyard grass (Echinochloa crus-galli)", "experiment": "Herbicidal effect evaluation test on weeds by soil treatment (barnyard grass)", "conditions": "Day 18 after treatment (4.2 L)", "protocol": "(§1) In a greenhouse having an average temperature of 25° C. (highest: 30° C., lowest: 25° C.), field soil (sandy loam) was filled in a plastic pot of 11 cm in length, width and depth, and twenty seeds of each of barnyard grass (Echinochloa crus-galli) and redroot amaranth (Amaranthus retroflexus) were sowed and covered with the same soil at a thickness of 1 cm. […] On the day of this chemical treatment, a total of 2-mm rainfall was artificially applied in 30 minutes using an artificial rain maker. Thereafter, barnyard grass and redroot amaranth were grown and, on Day 18 after the treatment, the growth conditions of barnyard grass and redroot amaranth were observed and examined. The rates of reduction in the plant height and the number of leaves relative to an untreated area were each calculated, and the herbicidal effect was determined as a value obtained by adding the thus calculated rates of reduction and dividing this value by 2 for evaluation of the degree of the herbicidal effect. For example, the herbicidal effect is 90% when the plant height was decreased by 90% and the number of leaves was reduced from 10 to 1, while the herbicidal effect is 75% when the plant height was decreased by 70% and the number of leaves was reduced from 5 to 1. It is noted here that, in Table 1, each value of the herbicidal effect represents an average value of two herbicidal effect evaluation tests."}, "[2]": {"test_system": "redroot amaranth (Amaranthus retroflexus)", "experiment": "Herbicidal effect evaluation test on weeds by soil treatment (redroot amaranth)", "conditions": "Day 18 after treatment (4 L)", "protocol": "as §1"}, "soybean (Glycine max)": {"test_system": "soybean (Glycine max)", "experiment": "Evaluation test of crop injury to soybean by soil treatment", "conditions": "15-mm rainfall", "protocol": "In a greenhouse having an average temperature of 25° C. (highest: 30° C., lowest: 25° C.), field soil (sandy loam) was filled in a plastic pot of 11 cm in length, width and depth, and a single seed of soybean (Glycine max) was sowed and covered with the same soil at a thickness of 2 cm. […] On the day of this chemical treatment, a total of 15-mm rainfall was artificially applied in 30 minutes using an artificial rain maker. Thereafter, the soybean was grown and, on Day 15 and Day 39 after the treatment or on Day 13 and Day 26 after the treatment, the growth conditions of the soybean were observed and examined in terms of the plant height and the number of leaves. The rates of reduction in the plant height and the number of leaves relative to an untreated area were each determined, and the thus determined rates of reduction were added and then divided by 2 to calculate the growth inhibition rate for evaluation of the degree of crop injury. […] It is noted here that, in Tables 2 to 5, each growth inhibition rate represents an average value of two crop injury evaluation tests. […] The values observed in the test each indicated an effect lower than the expected value calculated by the following Colby formula at a preferable dosage (see S. R. Colby, Weeds 15(1967), pp. 20-22). Colby's formula defines the expected value (E) as follows for the use of a combination of two chemical agents: (E)=X+Y−XY/100 wherein X represents the growth inhibition rate of an agent a at a concentration of x, and Y represents the growth inhibition rate of an agent b at a concentration of y."}, "[3]": {"conditions": "active component 70 g/ha (flumioxazin)"}, "[4]": {"conditions": "active component 140 g/ha (flumioxazin)"}, "[5]": {"conditions": "active component 25 g/ha (saflufenacil)"}, "[6]": {"conditions": "active component 50 g/ha (saflufenacil)"}, "[7]": {"conditions": "active component 160 g/ha (sulfentrazone)"}, "[8]": {"conditions": "active component 320 g/ha (sulfentrazone)"}},
  "data": [
    {"compound": "C#CCN1C(=O)COc2cc(F)c(N3C(=O)C4=C(CCCC4)C3=O)cc21", "note": "[Flumioxazin, flumioxazin]", "values": [
      {"measurement": "Herbicidal effect, barnyard grass", "setting": "[1]; [3]", "result": 100, "unit": "%"},
      {"measurement": "Herbicidal effect, barnyard grass", "setting": "[1]; [4]", "result": 100, "unit": "%"},
      {"measurement": "Herbicidal effect, redroot amaranth", "setting": "[2]; [3]", "result": 100, "unit": "%"},
      {"measurement": "Herbicidal effect, redroot amaranth", "setting": "[2]; [4]", "result": 100, "unit": "%"},
      {"measurement": "Soybean growth inhibition rate", "setting": "soybean (Glycine max); Table 2, 70 g/ha (flumioxazin), Day 15 after treatment", "result": 15, "unit": "%"},
      {"measurement": "Soybean growth inhibition rate", "setting": "soybean (Glycine max); Table 2, 70 g/ha (flumioxazin), Day 39 after treatment", "result": 5, "unit": "%"},
      {"measurement": "Soybean growth inhibition rate", "setting": "soybean (Glycine max); Table 3, 140 g/ha (flumioxazin), Day 15 after treatment", "result": 25, "unit": "%"},
      {"measurement": "Soybean growth inhibition rate", "setting": "soybean (Glycine max); Table 3, 140 g/ha (flumioxazin), Day 39 after treatment", "result": 10, "unit": "%"},
      {"measurement": "Soybean growth inhibition rate", "setting": "soybean (Glycine max); Table 4, 70 g/ha (flumioxazin), Day 13 after treatment", "result": 8, "unit": "%"},
      {"measurement": "Soybean growth inhibition rate", "setting": "soybean (Glycine max); Table 4, 70 g/ha (flumioxazin), Day 26 after treatment", "result": 10, "unit": "%"}
    ]},
    {"compound": "CC(C)N(C)S(=O)(=O)NC(=O)c1cc(-n2c(=O)cc(C(F)(F)F)n(C)c2=O)c(F)cc1Cl", "note": "[Saflufenacil, saflufenacil]", "values": [
      {"measurement": "Herbicidal effect, barnyard grass", "setting": "[1]; [5]", "result": 15, "unit": "%"},
      {"measurement": "Herbicidal effect, barnyard grass", "setting": "[1]; [6]", "result": 65, "unit": "%"},
      {"measurement": "Herbicidal effect, redroot amaranth", "setting": "[2]; [5]", "result": 100, "unit": "%"},
      {"measurement": "Herbicidal effect, redroot amaranth", "setting": "[2]; [6]", "result": 100, "unit": "%"},
      {"measurement": "Soybean growth inhibition rate", "setting": "soybean (Glycine max); Table 4, 25 g/ha (saflufenacil), Day 13 after treatment", "result": 20, "unit": "%"},
      {"measurement": "Soybean growth inhibition rate", "setting": "soybean (Glycine max); Table 4, 25 g/ha (saflufenacil), Day 26 after treatment", "result": 30, "unit": "%"},
      {"measurement": "Soybean growth inhibition rate", "setting": "soybean (Glycine max); Table 5, 50 g/ha (saflufenacil), Day 13 after treatment", "result": 30, "unit": "%"},
      {"measurement": "Soybean growth inhibition rate", "setting": "soybean (Glycine max); Table 5, 50 g/ha (saflufenacil), Day 26 after treatment", "result": 30, "unit": "%"}
    ]},
    {"compound": "Cc1nn(-c2cc(NS(C)(=O)=O)c(Cl)cc2Cl)c(=O)n1C(F)F", "note": "[Sulfentrazone, sulfentrazone]", "values": [
      {"measurement": "Herbicidal effect, barnyard grass", "setting": "[1]; [7]", "result": 100, "unit": "%"},
      {"measurement": "Herbicidal effect, barnyard grass", "setting": "[1]; [8]", "result": 100, "unit": "%"},
      {"measurement": "Herbicidal effect, redroot amaranth", "setting": "[2]; [7]", "result": 100, "unit": "%"},
      {"measurement": "Herbicidal effect, redroot amaranth", "setting": "[2]; [8]", "result": 100, "unit": "%"}
    ]}
  ]
}
